#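 The compound was tested at five concentrations on cells cultured in 96-well plates, with a 48-hour exposure period. GI50 is the concentration that inhibits growth by half. TGI: total growth inhibition.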
# Experiments:
# Test in all cases: growth of human tumour cells (NCI), 48 h
# T-47D breast = system: T-47D breast
# A498 renal = system: A498 renal
# UO-31 renal = system: UO-31 renal
# HL-60(TB) leukemia = system: HL-60(TB) leukemia
# OVCAR-3 ovarian = system: OVCAR-3 ovarian
# M14 melanoma = system: M14 melanoma
# TK-10 renal = system: TK-10 renal
# MALME-3M melanoma = system: MALME-3M melanoma
# K-562 leukemia = system: K-562 leukemia
# CCRF-CEM leukemia = system: CCRF-CEM leukemia
# SW-620 colon = system: SW-620 colon
# SF-268 CNS = system: SF-268 CNS
# NCI-H23 lung = system: NCI-H23 lung
# MOLT-4 leukemia = system: MOLT-4 leukemia
# MCF7 breast = system: MCF7 breast
# HCC-2998 colon = system: HCC-2998 colon
# HS 578T breast = system: HS 578T breast
# CAKI-1 renal = system: CAKI-1 renal
# DU-145 prostate = system: DU-145 prostate
# SK-MEL-2 melanoma = system: SK-MEL-2 melanoma
# RXF 393 renal = system: RXF 393 renal
# A549 NSCLC = system: A549 NSCLC
# SN12C renal = system: SN12C renal
# NCI/ADR-RES ovarian = system: NCI/ADR-RES ovarian
# NCI-H460 lung = system: NCI-H460 lung
# HOP-62 NSCLC = system: HOP-62 NSCLC
# HCT-116 colon = system: HCT-116 colon
# UACC-62 melanoma = system: UACC-62 melanoma
# SK-MEL-5 melanoma = system: SK-MEL-5 melanoma
# HCT-15 colon = system: HCT-15 colon
# KM12 colon = system: KM12 colon
# COLO 205 colon = system: COLO 205 colon
# 786-0 renal = system: 786-0 renal
# OVCAR-8 ovarian = system: OVCAR-8 ovarian
# HT29 colon = system: HT29 colon
# SNB-75 CNS = system: SNB-75 CNS
# MDA-MB-231 breast = system: MDA-MB-231 breast
# SF-539 CNS = system: SF-539 CNS
# MDA-MB-435 = system: MDA-MB-435
# SNB-19 CNS = system: SNB-19 CNS
# OVCAR-5 ovarian = system: OVCAR-5 ovarian
# ACHN renal = system: ACHN renal
# LOX IMVI melanoma = system: LOX IMVI melanoma
# IGROV1 ovarian = system: IGROV1 ovarian
# UACC-257 melanoma = system: UACC-257 melanoma
# NCI-H522 lung = system: NCI-H522 lung
# SR leukemia = system: SR leukemia
# U251 CNS = system: U251 CNS
# SK-OV-3 ovarian = system: SK-OV-3 ovarian
# BT-549 breast = system: BT-549 breast
# SK-MEL-28 melanoma = system: SK-MEL-28 melanoma
# PC-3 prostate = system: PC-3 prostate
# SF-295 CNS = system: SF-295 CNS
# HOP-92 NSCLC = system: HOP-92 NSCLC
structure (smiles),measurement,setting,value
COc1ccc(Cn2c(Br)c3c(c2Br)-c2nc(N)sc2CC3)cc1,GI50,T-47D breast,3.03 µM
same,TGI,T-47D breast,12.8 µM
same,GI50,A498 renal,4.66 µM
same,TGI,A498 renal,17.3 µM
same,GI50,UO-31 renal,1.59 µM
same,TGI,UO-31 renal,3.97 µM
same,GI50,HL-60(TB) leukemia,2.75 µM
same,TGI,HL-60(TB) leukemia,22.6 µM
same,GI50,OVCAR-3 ovarian,4.1 µM
same,TGI,OVCAR-3 ovarian,15.5 µM
same,GI50,M14 melanoma,3.96 µM
same,TGI,M14 melanoma,17.6 µM
same,GI50,TK-10 renal,3.69 µM
same,TGI,TK-10 renal,12.7 µM
same,GI50,MALME-3M melanoma,5.22 µM
same,TGI,MALME-3M melanoma,19.9 µM
same,GI50,K-562 leukemia,2.43 µM
same,TGI,K-562 leukemia,57.9 µM
same,GI50,CCRF-CEM leukemia,0.472 µM
same,TGI,CCRF-CEM leukemia,15.1 µM
same,GI50,SW-620 colon,3.1 µM
same,TGI,SW-620 colon,11.4 µM
same,GI50,SF-268 CNS,6.15 µM
same,TGI,SF-268 CNS,46.6 µM
same,GI50,NCI-H23 lung,10.6 µM
same,TGI,NCI-H23 lung,38.6 µM
same,GI50,MOLT-4 leukemia,0.962 µM
same,TGI,MOLT-4 leukemia,21.7 µM
same,GI50,MCF7 breast,3.58 µM
same,TGI,MCF7 breast,17.6 µM
same,GI50,HCC-2998 colon,13.3 µM
same,TGI,HCC-2998 colon,28.2 µM
same,GI50,HS 578T breast,5.61 µM
same,TGI,HS 578T breast,> 100 µM
same,GI50,CAKI-1 renal,2.9 µM
same,TGI,CAKI-1 renal,10.4 µM
same,GI50,DU-145 prostate,6.13 µM
same,TGI,DU-145 prostate,39.6 µM
same,GI50,SK-MEL-2 melanoma,5.56 µM
same,TGI,SK-MEL-2 melanoma,19.9 µM
same,GI50,RXF 393 renal,1.97 µM
same,TGI,RXF 393 renal,5.05 µM
same,GI50,A549 NSCLC,4.77 µM
same,TGI,A549 NSCLC,77 µM
same,GI50,SN12C renal,5.47 µM
same,TGI,SN12C renal,21 µM
same,GI50,NCI/ADR-RES ovarian,4.85 µM
same,TGI,NCI/ADR-RES ovarian,53.5 µM
same,GI50,NCI-H460 lung,3.88 µM
same,TGI,NCI-H460 lung,17.3 µM
same,GI50,HOP-62 NSCLC,6.55 µM
same,TGI,HOP-62 NSCLC,20.5 µM
same,GI50,HCT-116 colon,2.89 µM
same,TGI,HCT-116 colon,11.2 µM
same,GI50,UACC-62 melanoma,6.97 µM
same,TGI,UACC-62 melanoma,26 µM
same,GI50,SK-MEL-5 melanoma,4.83 µM
same,TGI,SK-MEL-5 melanoma,18.7 µM
same,GI50,HCT-15 colon,2.67 µM
same,TGI,HCT-15 colon,20.2 µM
same,GI50,KM12 colon,3.47 µM
same,TGI,KM12 colon,20.6 µM
same,GI50,COLO 205 colon,2.2 µM
same,TGI,COLO 205 colon,4.42 µM
same,GI50,786-0 renal,5.02 µM
same,TGI,786-0 renal,28.6 µM
same,GI50,OVCAR-8 ovarian,3.43 µM
same,TGI,OVCAR-8 ovarian,18.4 µM
same,GI50,HT29 colon,4.14 µM
same,TGI,HT29 colon,13.2 µM
same,GI50,SNB-75 CNS,1.92 µM
same,TGI,SNB-75 CNS,8.64 µM
same,GI50,MDA-MB-231 breast,5.97 µM
same,TGI,MDA-MB-231 breast,26.8 µM
same,GI50,SF-539 CNS,3.48 µM
same,TGI,SF-539 CNS,13.5 µM
same,GI50,MDA-MB-435,0.407 µM
same,TGI,MDA-MB-435,10.4 µM
same,GI50,SNB-19 CNS,8.68 µM
same,TGI,SNB-19 CNS,> 100 µM
same,GI50,OVCAR-5 ovarian,16 µM
same,TGI,OVCAR-5 ovarian,50.5 µM
same,GI50,ACHN renal,3.22 µM
same,TGI,ACHN renal,12 µM
same,GI50,LOX IMVI melanoma,3.35 µM
same,TGI,LOX IMVI melanoma,16.3 µM
same,GI50,IGROV1 ovarian,11.6 µM
same,TGI,IGROV1 ovarian,39.2 µM
same,GI50,UACC-257 melanoma,8.48 µM
same,TGI,UACC-257 melanoma,22.3 µM
same,GI50,NCI-H522 lung,1.59 µM
same,TGI,NCI-H522 lung,3.04 µM
same,GI50,SR leukemia,0.84 µM
same,TGI,SR leukemia,> 100 µM
same,GI50,U251 CNS,5.15 µM
same,TGI,U251 CNS,19 µM
same,GI50,SK-OV-3 ovarian,4.01 µM
same,TGI,SK-OV-3 ovarian,20 µM
same,GI50,BT-549 breast,9.16 µM
same,TGI,BT-549 breast,30.4 µM
same,GI50,SK-MEL-28 melanoma,4.98 µM
same,TGI,SK-MEL-28 melanoma,18.1 µM
same,GI50,PC-3 prostate,4.76 µM
same,TGI,PC-3 prostate,30.1 µM
same,GI50,SF-295 CNS,3.07 µM
same,TGI,SF-295 CNS,10.4 µM
same,GI50,HOP-92 NSCLC,2.24 µM
same,TGI,HOP-92 NSCLC,14 µM
